Results from article PMC9585589 (ACS Chemical Neuroscience, 2022).
Where “and” joins values, the source holds several entries; their conditions need not be identical. Identical values can stand only once. Like-named read-outs stand apart in the source and are kept apart here.

Legend:
CB1 = settings: known CB1 ligands; ref 55 (rimonabant), 56 (nabilone), 17 (bazedoxifene); cited from earlier work
human CB1 receptor [1] = target: T1, human CB1 receptor (Homo sapiens, UniProt P21554); format: biochemical; settings: in words
[2] = design: method as in MedChemExpress product data sheet; settings: ref MedChemExpress product data sheet, cited from earlier work
human CB1 receptor [3] = target: T1, human CB1 receptor; assay: biochemical; format: binding; design: purchased Merck HTS019M; host or cells: Chem-1 cells
Source text: Compounds selected for the in vitro binding assay from the first iteration of VS were purchased via MolPort, SIA, Riga, Latvia and Biopurify Phytochemicals Ltd., Chengdu, China. Compounds from the second iteration were purchased from MolPort, SIA, Riga, Latvia and Chemspace, SIA, Riga, Latvia (Supporting Information S3). […] Membranes from cells overexpressing the human CB1 receptor (ChemiScreen CB1 Cannabinoid Receptor Membrane Preparation, cat. no. HTS019M) as well as MgCl2, CaCl2, Trizma Base, NaCl, polyethylenimine (PEI) and dimethyl sulfoxide (DMSO) were purchased from Merck (USA). Bovine serum albumin (BSA) was obtained from Pol-Aura (Poland).
Compounds were dissolved in 50% DMSO and added to the reaction mixture at 10 concentrations equally spaced on a log scale (10^–10 to 10^–4.5 M). The final DMSO concentration was 5%. […] The reaction mixture (500 μL) was incubated for 1.5 h at 30°C . Before harvesting, Whatman GF/B Filter Paper (Brandel, USA) was presoaked with 0.33% PEI buffer for 30 min. and then washed with 2 ml of 50 mM Tris-HCl buffer (pH = 7.4) and 0.5% BSA to minimize non-specific binding. The reaction was terminated by depositing the samples onto GF/B filter paper with the Brandel M-24 Cell Harvester (Brandel, USA). Samples were then rapidly washed 3 times with 2 ml of ice-cold wash buffer (50 mM Tris-HCl pH 7.4, 500 mM NaCl) to separate the bound radioligand from free. Filters were then air-dried for 1 h at 60°C . After drying, filter discs were placed on a flexible 24-well plate and 500 μL of EcoScint-20 scintillant was added to each well. Plates were counted (2 min. per well) in a Trilux MicroBeta^2 2450 scintillation counter (Perkin Elmer, USA). Data were analyzed with GraphPad Prism 5.0 software.[89]

human CB1 receptor [4] = target: T1, human CB1 receptor; assay: biochemical
Method: Ten compound concentrations equally spaced on a log scale (10^–3 to 10^–9 M) were incubated in triplicate with membrane preparations from CHO-K1 cells expressing the human CB1 receptor (5 μg per well) (Perkin Elmer, cat. no. ES-110-M400UA) in an assay buffer containing 50 mM Tris-HCl, pH = 7.4, 1 mM EGTA, 3 mM MgCl2, 100 mM NaCl and 30 μM GDP) in the presence of 0.08 nM [^35S]GTPγS (specific activity: 1250 Ci/mmole, Perkin Elmer). Non-specific binding was determined with 100 μM of unlabeled GTPγS. […] The final DMSO concentration in the assay was 5%. The reaction mixture was incubated for 90 min. at 30°C . Next, the samples were deposited under vacuum with the FilterMate Harvester® (Perkin Elmer, USA) onto Unifilter® GF/B Plates (Perkin Elmer, USA) presoaked with wash buffer (50 mM Tris-HCl, pH = 7.4). The samples were then rapidly washed with 2 ml of wash buffer. Filter plates were dried for 30 min. at 50 °C and 40 μL of MicroScint PS (Perkin Elmer, USA) scintillation fluid was added to each well. Radioactivity was counted in a Trilux MicroBeta^2 counter (Perkin Elmer, USA). Data were analyzed with GraphPad Prism 5.0 software. Curves were fitted with three-parameter non-linear regression model.

T1 sequence (P21554 whole entry): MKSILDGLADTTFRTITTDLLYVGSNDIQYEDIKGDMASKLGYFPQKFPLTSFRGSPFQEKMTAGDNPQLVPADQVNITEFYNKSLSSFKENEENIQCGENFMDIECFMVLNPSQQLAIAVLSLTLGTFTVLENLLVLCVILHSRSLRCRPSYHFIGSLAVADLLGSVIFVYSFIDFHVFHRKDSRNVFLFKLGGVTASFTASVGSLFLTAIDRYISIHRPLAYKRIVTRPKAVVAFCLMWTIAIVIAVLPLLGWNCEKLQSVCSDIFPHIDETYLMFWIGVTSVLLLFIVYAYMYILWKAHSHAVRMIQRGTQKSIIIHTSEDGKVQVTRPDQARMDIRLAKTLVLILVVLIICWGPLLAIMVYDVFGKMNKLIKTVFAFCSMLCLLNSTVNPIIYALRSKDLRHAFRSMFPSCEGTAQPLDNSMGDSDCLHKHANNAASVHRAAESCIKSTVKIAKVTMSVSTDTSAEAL

Cc1c(-c2ccc(O)cc2)n(Cc2ccc(OCCN3CCCCCC3)cc2)c2ccc(O)cc12 [bazedoxifene]
pKi (CB1): 6.1[17]

CCCCCCC(C)(C)c1cc(O)c2c(c1)OC(C)(C)C1CCC(=O)CC21 (centres unmarked) [nabilone]
pKi (CB1): 8.7[56]

CC(C)OC(=O)CCC/C=C\C[C@@H]1[C@@H](/C=C/[C@@H](O)COc2cccc(C(F)(F)F)c2)[C@H](O)C[C@@H]1O [Compound 9, travoprost]
intrinsic activity (human CB1 receptor [1]): antagonists | Solubility ([2]; 10% DMSO >> 40% PEG300 >> 5% Tween-80 >> 45% saline): ≥ 2.08 mg/mL and ≥ 4.16 mM | Solubility ([2]; 10% DMSO >> 90% (20% SBE-β-CD in saline)): ≥ 2.08 mg/mL and ≥ 4.16 mM | Solubility ([2]; 10% DMSO >> 90% corn oil): ≥ 2.08 mg/mL and ≥ 4.16 mM | Solubility in DMSO ([2]; in vitro): ≥ 41.67 mg/mL and ≥ 83.25 mM | Ki (human CB1 receptor [3]; Ki (μM, 95% CI)): 3.6 µM | Ki (human CB1 receptor [3]; [3H]CP-55,940 displacement, membranes of Chem-1 cells expressing human CB1, read-out: pKi ± SEM (converted)): 3.98 µM | IC50 (human CB1 receptor [4]; CB1 inhibition IC50 (μM, 95% CI)): 232 µM | IC50 (human CB1 receptor [4]; CHO-K1 membranes, WIN 55,212-2 (3 μM) as stimulating ligand, read-out: CB1 inhibition pIC50 (converted)): 229 µM
